Tests used:
[1] = cited from earlier work
[2] = tested on: HCC; conditions: cited from earlier work
[3] = design: method as in earlier work; conditions: cited from earlier work
[4] = Organ distribution of sorafenib in rats; assay type: in vivo, Sprague-Dawley rats; conditions: for concentration at 6 h: Sprague-Dawley, rat, po, 40 mg/kg
Experimental: The brain, liver, heart, spleen, lung and kidney were collected and weighed. These collected samples were stored at −20 °C until analysis.
Thawed organ samples were homogenized in 50% aqueous acetonitrile (sample weight:volume ratio, 1:5), and the homogenate was then centrifuged at 13000 × g for 10 min at 4 °C. The supernatant was collected, placed in brown Eppendorf tubes, and stored at −20 °C until analysis. In brief, each organ sample (50 μL) was combined with 150 μL of IS solution (diethylstilbestrol) for protein precipitation. Finally, 20 μL of filtrate was injected into the HPLC system for analysis.

[5] = tested on: portal vein tumor thrombosis; assay: Retrospective review: PVTT recanalization in HCC patients treated with sorafenib plus conventional RT or SBRT; assay type: in vivo, human
Experimental: The need for informed consent was waived by the Institutional Review Board of the Far Eastern Memorial Hospital (FEMH-IRB-108025-E) and retrospective data were collected after receiving approval from the Institutional Review Board of the Far Eastern Memorial Hospital (FEMH-IRB-108025-E). All research was performed in accordance with relevant guidelines and regulations. All tumors were staged according to the American Joint Committee on Cancer (AJCC) Cancer Staging Manual, 7th edition. A total of 90 HCC patients with PVTT were identified. […] The patients who were treated with a radiation fraction size of <5 Gy and those treated with ≥5 Gy were grouped as the conventional and the SBRT group, respectively.

[6] = Plasma pharmacokinetics of sorafenib with RT, with or without CsA pretreatment, in freely moving rats; assay type: in vivo, Sprague-Dawley rats; conditions: for Cmax / Tmax / AUC(0-t): Sprague-Dawley, rat, plasma, 40 mg/kg
Experimental: A freely moving rat model was designed for the current study[21] (Fig. 1A). Experimental rats were anesthetized with 1 g/mL urethane and 0.1 g/mL α-chloralose (1 mL/kg by intraperitoneal [i.p.] injection), and polyethylene tubes were then implanted in the right jugular vein for intravenous (i.v.) fluid administration. The right jugular vein was catheterized for blood sampling. The catheter traversed the subcutaneous tissue and was fixed in the dorsal neck region. After surgery, the rats were placed in an experimental cage and allowed to recover for 1 day. During the recovery period, the rats were kept warm under a light. Then, the rats were anesthetized and immobilized on a board while undergoing CT for localization of the whole liver (conventional technique, Fig. 1B) or a central area of 1.5 × 1.5 cm (SBRT technique, Fig. 1C).
The rats were randomly divided into five groups of six rats per group.
The rats were pretreated with CsA (20 mg/kg, i.p.). […] Blood samples were obtained according to a preset schedule.
Blood samples (150 µL) were withdrawn from the jugular vein with a fraction collector at 15, 30, 45, and 60 min and at 1.5, 2, 2.5, 3, 3.5 and 4 hr after drug administration. The blood samples were immediately centrifuged at 4200 × g for 10 min. The resulting plasma (50 µL) was added to 1 mL of ethyl acetate in a clean tube, vortexed for 5 min, and centrifuged at 5900 × g for 10 min. After centrifugation, the upper organic layer containing ethyl acetate was transferred to a new tube and evaporated to dryness under a nitrogen flow.
Chromatographic analysis was performed on a Model LC-20DAD HPLC system (Shimadzu, Tokyo, Japan) equipped with a Model SPD-M20A wavelength UV detector, a SIL-20AC autosampler, and an LC Solution data processing system. A […] C[18] column (50 × 2.1 mm, particle size 1.7 μm, Eclipse XDB; Agilent, Palo Alto, CA, USA) was used for HPLC separation. The mobile phase consisted of potassium dihydrogen phosphate (10 mM, pH = 3) and acetonitrile (55:45, v/v). The flow rate was set at 0.2 mL/min, and the injection volume was 5 μL. […] A peak controlled spectrum recording was selected with a range of 190–300 nm.
Pharmacokinetic parameters, including the area under the concentration vs. time curve (AUC), terminal elimination phase t1/2, Cmax, MRT, total plasma clearance and Vss, were calculated using the PK calculation software WinNonlin Standard Edition, version 1.1 (Scientific Consulting, Apex, NC, USA) using a compartmental method.

[7] = tested on: efflux transporter P-gp; conditions: cited from earlier work
[8] = sorafenib + SBRT (fraction size ≥ 5 Gy), n = 18
[9] = sorafenib + conventional RT (fraction size <5 Gy), n = 25
[10] = oral, CsA 20 mg/kg i.p. + RT2Gy, sorafenib 40 mg/kg 1 hr later
[11] = oral, CsA 20 mg/kg i.p. + RT2Gy, sorafenib 40 mg/kg 24 hr later
[12] = oral, CsA 20 mg/kg i.p. + RT9Gy, sorafenib 40 mg/kg 1 hr later
[13] = oral, CsA 20 mg/kg i.p. + RT9Gy, sorafenib 40 mg/kg 24 hr later
[14] = oral, CsA 20 mg/kg i.p. + sorafenib 40 mg/kg
[15] = po, RT2Gy, sorafenib 40 mg/kg 1 hr later
[16] = po, RT2Gy, sorafenib 40 mg/kg 24 hr later
[17] = po, RT9Gy, sorafenib 40 mg/kg 1 hr later
[18] = po, RT9Gy, sorafenib 40 mg/kg 24 hr later
[19] = po, sorafenib 40 mg/kg p.o. only (sham RT), rats

CNC(=O)c1cc(Oc2ccc(NC(=O)Nc3ccc(Cl)c(C(F)(F)F)c3)cc2)ccn1 [sorafenib, Sorafenib]
Reduction of AUC ([1]; average, concomitant administration of the CYP3A4 inducer rifampicin): 37% | Orally administered dose recovered as unchanged drug ([1]; by biliary excretion or lack of absorption): Approximately 50% | Complete or partial response rate ([2]; HCC patients, combination of sorafenib and RT): 55% | Reduction of HCC tumor volume ([2]; case report, sorafenib + RT combination regimen): 39% | Permeability across the gastrointestinal (GI) epithelium [3]: high | Organ distribution vs sham group ([4]; RT2Gy and RT9Gy under the sequential regimen): did not differ significantly | Level of sorafenib in organs vs sham group ([4]; RT9Gy concurrent with sorafenib, all organs except the brain): significantly decreased | concentration at 6 h ([4]; brain): 140 ± 150 ng/g | concentration at 6 h ([4]; heart): 1200 ± 360 ng/g | concentration at 6 h ([4]; kidney): 1930 ± 750 ng/g | concentration at 6 h ([4]; liver): 4430 ± 1560 ng/g | concentration at 6 h ([4]; lung): 3200 ± 1000 ng/g | concentration at 6 h ([4]; spleen): 1420 ± 530 ng/g | No response (recanalization) [5, 8]: 1/18 (5.6%) | Partial recanalization [5, 8]: 12/18 (66.7%) | Increase in complete recanalization, SBRT vs conventional RT ([5]; sorafenib + SBRT compared to sorafenib + conventional RT): 3 fold | No response (recanalization) [5, 9]: 10/25 (40.0%) | Partial recanalization [5, 9]: 13/25 (52.0%) | Cmax [6, 10]: 1720 ± 960 ng/mL | Tmax [6, 10]: 3.3 h | Cmax [6, 11]: 7710 ± 3410 ng/mL | Tmax [6, 11]: 3.75 h | Cmax [6, 12]: 3740 ± 2170 ng/mL | Tmax [6, 12]: 3.33 h | Cmax [6, 13]: 5430 ± 3220 ng/mL | Tmax [6, 13]: 3.92 h | Cmax [6, 14]: 4690 ± 2310 ng/mL | Tmax [6, 14]: 4 h | Cmax [6, 15]: 10100 ± 5930 ng/mL | Tmax [6, 15]: 2.92 h | Cmax [6, 16]: 1890 ± 1080 ng/mL | Tmax [6, 16]: 3.4 h | AUC(0-t) ([6]; po, RT2Gy, sorafenib 40 mg/kg p.o. 1 hr later): 27800 ng·h/mL | AUC(0-t) ([6]; po, RT2Gy, sorafenib 40 mg/kg p.o. 24 hr later): 4950 ng·h/mL | Cmax [6, 17]: 12300 ± 6300 ng/mL | Tmax [6, 17]: 3.25 h | Cmax [6, 18]: 8690 ± 2730 ng/mL | Tmax [6, 18]: 3.08 h | AUC(0-t) ([6]; po, RT9Gy, sorafenib 40 mg/kg p.o. 1 hr later): 31500 ng·h/mL | AUC(0-t) ([6]; po, RT9Gy, sorafenib 40 mg/kg p.o. 24 hr later): 24300 ng·h/mL | AUC(0-t) ([6]; po, CsA 20 mg/kg i.p. + RT2Gy, sorafenib 40 mg/kg p.o. 1 hr later): 4630 ng·h/mL | AUC(0-t) ([6]; po, CsA 20 mg/kg i.p. + RT2Gy, sorafenib 40 mg/kg p.o. 24 hr later): 18600 ng·h/mL | AUC(0-t) ([6]; po, CsA 20 mg/kg i.p. + RT9Gy, sorafenib 40 mg/kg p.o. 1 hr later): 10100 ng·h/mL | AUC(0-t) ([6]; po, CsA 20 mg/kg i.p. + RT9Gy, sorafenib 40 mg/kg p.o. 24 hr later): 12900 ng·h/mL | AUC(0-t) ([6]; po, CsA 20 mg/kg i.p. + sorafenib 40 mg/kg p.o.): 13100 ng·h/mL | AUC(0-t) [6, 19]: 12000 ng·h/mL | Cmax [6, 19]: 4390 ± 2280 ng/mL | Tmax [6, 19]: 3.75 h | Increase in concentration of sorafenib ([6]; both concurrent and sequential RT9Gy regimens compared with sorafenib alone): more than 2 fold | Binding to P-gp [7]: moderate affinity | P-gp substrate affinity [7]: moderate-affinity
